Laboratory results: US11065253B2, “Arylquinazolines” (Merck Patent GmbH, priority 2013, dated 2021)
pIC50: −log10 of the molar value.

What follows are compounds tested on phospho-serine 2056 DNA-PK in HCT116 cells (assay: DNA-PK phosphorylation at serine 2056 (cellular), ELISA in bleomycin-treated HCT116 cells). Settings: Homo sapiens, HCT-116, 6 h, cellular; HCT116 cells, 10 μM bleomycin, six hours; read-out: IC50 pDNA-PK.
Format: cell-based
How it was run: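 Test compounds and bleomycin (10 μM) are added to adherent HCT116 cells for 6 h. Detection uses an HRP-based chemiluminescent ELISA, with phospho-DNA-PK signals standardised to total protein.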

pIC50 | SMILES
5.30 to 6.30 | COc1nnc(C(O)c2cc(-c3ncnc4cc(N5CCOCC5)ccc34)c(F)cc2Cl)c2ccncc12 (stereo not drawn) [Example 40, [2-Chloro-4-fluoro-5-(7-morpholin-4-yl-quinazolin-4-yl)phenyl]-(4-methoxypyrido-[3,4-d}pyridazin-1-yl)-methanol]
5.30 to 6.30 | NC(=O)c1ccc(C(O)c2cc(-c3ncnc4cc(N5CCOCC5)ccc34)c(F)cc2Cl)nn1 (stereo not drawn) [Example 62, 6-{[2-Chloro-4-fluoro-5-(7-morpholin-4-yl-quinazolin-4-yl)phenyl]-hydroxymethyl}-pyridazine-3-carboxylic acid amide]
> 6.30 | OC(c1cc(-c2ncnc3cc(N4CCOCC4)ccc23)c(F)cc1Cl)c1nccnc1Cl (stereo not drawn) [Example 64, [2-Chloro-4-fluoro-5-(7-morpholin-4-yl-quinazolin-4-yl)phenyl]-(3-chloropyrazin-2-yl)-methanol]
> 6.30 | OC(c1ccnnc1)c1cc(-c2ncnc3cc(N4CCOCC4)ccc23)c(F)cc1Cl (stereo not drawn) [Example 36, [2-Chloro-4-fluoro-5-(7-morpholin-4-yl-quinazolin-4-yl)phenyl]-pyridazin-4-ylmethanol]

Same assay, conditions: Homo sapiens, HCT-116, cellular DNA-PK phosphorylation at serine 2056, HCT116 cells; read-out: IC50 pDNA-PK

pIC50 | SMILES
> 6.30 | OC(c1ccc(F)c(-c2ncnc3cc(N4CCOCC4)ccc23)c1)c1ncccc1OC(F)(F)F (stereo not drawn) [Example 475, [4-Fluoro-3-(7-morpholin-4-yl-quinazolin-4-yl)-phenyl]-(3-trifluoro-methoxypyridin-2-yl)-methanol]
> 6.30 | OC(c1cc(-c2ncnc3cc(N4CCOCC4)ccc23)ccc1Cl)c1ncnc2sccc12 (stereo not drawn) [Example 430, [2-Chloro-5-(7-morpholin-4-yl-quinazolin-4-yl)-phenyl]thieno[2,3-d}-pyrimidin-4-yl-methanol]
5.30 to 6.30 | Cn1cnc2c(C(O)c3cc(-c4ncnc5cc(N6CCOCC6)ccc45)ccc3F)ncnc21 (stereo not drawn) [Example 370, [2-Fluoro-5-(7-morpholin-4-yl-quinazolin-4-yl)-phenyl]-(9-methyl-9H-purin-6-yl)-methanol]
> 6.30 | Cn1ncc2c(C(O)c3ccc(F)c(-c4ncnc5cc(N6CCOCC6)ccc45)c3)ncnc21 (stereo not drawn) [Example 404, [4-Fluoro-3-(7-morpholin-4-yl-quinazolin-4-yl)-phenyl]-(1-methyl-1H-pyrazolo[3,4-d}-pyrimidin-4-yl)-methanol]
5.30 to 6.30 | Cn1c(C(O)c2ccc(F)c(-c3ncnc4cc(N5CCOCC5)ccc34)c2)cccc1=O (stereo not drawn) [Example 375, 6-{[4-Fluoro-3-(7-morpholin-4-yl-quinazolin-4-yl)-phenyl]hydroxy-methyl}-1-methyl-1H-pyridin-2-one (Ena 2)]

Same assay, conditions: Homo sapiens, HCT-116, phospho-serine 2056 DNA-PK, bleomycin-treated HCT116 cells; class symbols A-D; read-out: IC50 pDNA-PK

pIC50 | SMILES
5.30 to 6.30 | C#CC(O)(c1ccc(OC)nn1)c1cc(-c2ncnc3cc(N4CCOCC4)ccc23)c(F)cc1Cl (stereo not drawn) [Example 122, 1-[2-Chloro-4-fluoro-5-(7-morpholin-4-yl-quinazolin-4-yl)-phenyl]-1-(6-methoxy-pyridazin-3-yl)-prop-2-yn-1-ol]
5.00 to 5.30 | OCCNc1nccnc1C(O)c1ccc(F)c(-c2ncnc3cc(N4CCOCC4)ccc23)c1 (stereo not drawn) [Example 106, 2-(3-{[4-fluoro-3-(7-morpholin-4-yl-quinazolin-4-yl)-phenyl]hydroxy-methyl}pyrazin-2-yl-amino)ethanol]
5.30 to 6.30 | OCc1csc([C@@H](O)c2cc(-c3ncnc4cc(N5CCOCC5)ccc34)c(F)cc2Cl)n1 [Example 185, (S)-[2-Chloro-4-fluoro-5-(7-morpholin-4-yl-quinazolin-4-yl)-phenyl]-(4-hydroxymethyl-thiazol-2-yl)-methanol]
4.52 to 5.00 | CC(O)(c1ccc(F)c(-c2ncnc3cc(N4CCOCC4)ccc23)c1)c1nccs1 (stereo not drawn) [Example 163, 1-[4-Fluoro-3-(7-morpholin-4-yl-quinazolin-4-yl)-phenyl]-1-thiazol-2-ylethanol]
4.52 to 5.00 | COC(=O)COc1ccc(C(O)c2cc(-c3ncnc4cc(N5CCOCC5)ccc34)c(F)cc2Cl)nn1 (stereo not drawn) [Example 114, (6-{[2-Chloro-4-fluoro-5-(7-morpholin-4-yl-quinazolin-4-yl)-phenyl]hydroxy-methyl}pyridazin-3-yl-oxy)acetic acid methyl ester]
5.30 to 6.30 | OC(c1ccc(F)c(-c2ncnc3cc(N4CCOCC4)sc23)c1)c1nccs1 (racemic) [Example 144, [4-Fluoro-3-(6-morpholin-4-yl-thieno[3,2-d}-pyrimidin-4-yl)-phenyl]thiazol-2-yl-methanol]
5.30 to 6.30 | COc1ccc(C(O)c2cc(-c3ncnc4cc(N5CCOCC5)ccc34)c(F)cc2F)cn1 (stereo not drawn) [Example 221, [2,4-Difluoro-5-(7-morpholin-4-yl-quinazolin-4-yl)-phenyl]-(6-methoxy-pyridin-3-yl)methanol]

Same assay, conditions: Homo sapiens, HCT-116, phospho-serine 2056 DNA-PK, bleomycin-treated HCT116 cells; read-out: IC50 pDNA-PK

pIC50 | SMILES
5.30 to 6.30 | NC(=O)C(c1ccc2nccn2n1)c1cc(-c2ncnc3cc(N4CCOCC4)ccc23)c(F)cc1Cl (stereo not drawn) [Example 323, 2-[2-Chloro-4-fluoro-5-(7-morpholin-4-yl-quinazolin-4-yl)-phenyl]-2-imidazo-[1,2-b]pyridazin-6-yl-acetamide]
4.52 to 5.00 | Oc1ncnc(C(O)c2cc(-c3ncnc4cc(N5CCOCC5)ccc34)ccc2Cl)c1Cl (stereo not drawn) [Example 330, 5-Chloro-6-{[2-chloro-5-(7-morpholin-4-yl-quinazolin-4-yl)-phenyl]hydroxy-methyl}pyrimidin-4-ol]
5.30 to 6.30 | Cc1cc(C(O)c2ccc(F)c(-c3ncnc4cc(N5CCOCC5)ccc34)c2)n(C)c(=O)c1 (stereo not drawn) [Example 340, 6-{[4-Fluoro-3-(7-morpholin-4-yl-quinazolin-4-yl)-phenyl]hydroxy-methyl}-1,4-dimethyl-1H-pyridin-2-one]
> 6.30 | OC(c1ccc(F)c(-c2ncnc3cc(N4CCOCC4)ccc23)c1)c1nncc2sccc12 (stereo not drawn) [Example 333, [4-Fluoro-3-(7-morpholin-4-yl-quinazolin-4-yl)-phenyl]thieno[2,3-d}-pyridazin-4-yl-methanol]
5.30 to 6.30 | Cn1nc(C(O)c2ccc(F)c(-c3ncnc4cc(N5CCOCC5)ccc34)c2)ccc1=O (stereo not drawn) [Example 326, 6-{[4-Fluoro-3-(7-morpholin-4-yl-quinazolin-4-yl)-phenyl]hydroxy-methyl}-2-methyl-2H-pyridazin-3-one]

Second part, the compound before the results:

SMILES | pIC50
Cc1nccnc1[C@H](O)c1ccc(F)c(-c2ncnc3cc(N4CCOCC4)cnc23)c1 [Example 234, (R)-[4-Fluoro-3-(7-morpholin-4-yl-pyrido[3,2-d}-pyrimidin-4-yl)-phenyl]-(3-methyl-pyrazin-2-yl)-methanol] | > 6.30
NC(=O)C(c1ccc(F)c(-c2ncnc3cc(N4CCOCC4)ccc23)c1)c1nnc(Cl)c2ccsc12 (stereo not drawn) [Example 290, 2-(4-Chlorothieno-[2,3-d}pyridazin-7-yl)-2-[4-fluoro-3-(7-morpholin-4-yl-quinazolin-4-yl)-phenyl]acetamide] | 5.00 to 5.30
COc1nccnc1C(C(N)=O)c1ccc(F)c(-c2ncnc3cc(N4CCOCC4)ccc23)c1 (stereo not drawn) [Example 305, 2-[4-Fluoro-3-(7-morpholin-4-yl-quinazolin-4-yl)-phenyl]-2-(3-methoxy-pyrazin-2-yl)acetamide] | 5.00 to 5.30

Same assay, conditions: cellular DNA-PK phosphorylation at serine 2056, HCT116 cells; read-out: IC50 pDNA-PK

pIC50 | SMILES
> 6.30 | Cc1cccnc1C(O)c1ccc(F)c(-c2ncnc3cc(N4CCOCC4)ccc23)c1 (stereo not drawn) [Example 472, [4-Fluoro-3-(7-morpholin-4-yl-quinazolin-4-yl)-phenyl]-(3-methyl-pyridin-2-yl)methanol]
> 6.30 | OC(c1cccnn1)c1cc(-c2ncnc3cc(N4CCOCC4)ccc23)ccc1Cl (stereo not drawn) [Example 470, [2-Chloro-5-(7-morpholin-4-yl-quinazolin-4-yl)-phenyl]pyridazin-3-yl-methanol]
5.30 to 6.30 | COc1nccnc1[C@@H](O)c1cc(-c2ncnc3cc(N4CCOCC4)ccc23)ccc1Cl [Example 411, (S)-[2-Chloro-5-(7-morpholin-4-yl-quinazolin-4-yl)-phenyl]-(3-methoxy-pyrazin-2-yl)-methanol (Ena 1)]
5.30 to 6.30 | Cc1cncnc1C(C(N)=O)c1cc(-c2ncnc3cc(N4CCOCC4)ccc23)ccc1Cl (stereo not drawn) [Example 378, 2-[2-Chloro-5-(7-morpholin-4-yl-quinazolin-4-yl)-phenyl]-2-(5-methyl-pyrimidin-4-yl)-acetamide (Ena 1)]

Further lines, the compound ahead of its results:

SMILES | pIC50
OC(c1cc(-c2ncnc3cc(N4CCOCC4)ccc23)c(F)cc1F)c1nccnc1OC(F)F (stereo not drawn) [Example 450, (3-Difluoromethoxy-pyrazin-2-yl)-[2,4-difluoro-5-(7-morpholin-4-yl-quinazolin-4-yl)-phenyl]methanol] | 5.00 to 5.30
Cn1cnc2ncnc(C(O)c3cc(-c4ncnc5cc(N6CCOCC6)ccc45)c(F)cc3Cl)c21 (stereo not drawn) [Example 423, [2-Chloro-4-fluoro-5-(7-morpholin-4-yl-quinazolin-4-yl)-phenyl]-(7-methyl-7H-purin-6-yl)-methanol] | 5.00 to 5.30

Same assay, conditions: cellular; HCT116 cells, 10 μM bleomycin, six hours; read-out: IC50 pDNA-PK

pIC50 | SMILES
> 6.30 | OC(c1cccnn1)c1cc(-c2ncnc3cc(N4CCOCC4)ccc23)c(F)cc1Cl (stereo not drawn) [Example 30, [2-Chloro-4-fluoro-5-(7-morpholin-4-yl-quinazolin-4-yl)phenyl]-pyridazin-3-ylmethanol]

Same assay, conditions: phospho-serine 2056 DNA-PK, bleomycin-treated HCT116 cells; class symbols A-D; read-out: IC50 pDNA-PK

pIC50 | SMILES
5.30 to 6.30 | OC(c1cc(F)c(F)c(-c2ncnc3cc(N4CCOCC4)ccc23)c1)c1nccs1 (stereo not drawn) [Example 178, [3,4-Difluoro-5-(7-morpholin-4-yl-quinazolin-4-yl)-phenyl]thiazol-2-yl-methanol]
> 6.30 | CC(C#N)Oc1ccc(C(O)c2cc(-c3ncnc4cc(N5CCOCC5)ccc34)c(F)cc2Cl)nn1 (single isomer, unassigned) [Example 102, 2-(6-{[2-Chloro-4-fluoro-5-(7-morpholin-4-yl-quinazolin-4-yl)-phenyl]hydroxy-methyl}pyridazin-3-yloxy)propionitrile]
